# Test system: NO production in BV-2 cells [NO 생성; BV-2 세포]
# Assay: Nitric oxide (NO) quantification (nitrite, Griess reaction) in LPS-activated BV-2 cells
# Assay type: cell-based
# Settings: 20 μM, LPS 0.2 ㎍/mL, 24 h co-treatment, nitrite by Griess at 540 nm, 1440 min
row,SMILES,NO (% of LPS)
1,"CC(Nc1nc([S+](C)[O-])nc2c1cnn2Cc1ccccc1)c1ccccc1 (stereo not shown) [화합물 22h, 1-벤질-6-(메틸설파이닐)-N-(1-페닐에틸)-1H-피라졸로[3,4-d]피리미딘-4-아민]",59±1.4 % of LPS
2,"CC(Nc1nc([S+](C)[O-])nc2c1cnn2Cc1ccccc1)c1ccccc1 (stereo not shown) [화합물 22i, 1-벤질-6-(메틸설파이닐)-N-(1-페닐에틸)-1H-피라졸로[3,4-d]피리미딘-4-아민]",81±7.5 % of LPS
3,"CC(Nc1nc([S+](C)[O-])nc2c1cnn2Cc1ccccc1)c1ccccc1 (stereo not shown) [화합물 22j, 1-벤질-6-(메틸설파이닐)-N-(1-페닐에틸)-1H-피라졸로[3,4-d]피리미딘-4-아민]",70±3.9 % of LPS

# Same assay, conditions: Mus musculus, BV-2, 24 h, 20 μM, LPS 0.2 ㎍/mL, 24 h co-treatment, nitrite by Griess at 540 nm
row,SMILES,activity at 20 µM [%]
1,"COc1ccccc1CCn1ncc2c(NCc3ccccc3OC)nc(SC)nc21 [화합물 19i, N-(2-메톡시벤질)-1-(2-메톡시펜에틸)-6-(메틸티오)-1H-피라졸로[3,4-d]피리미딘-4-아민]",23.1 ± 0.5
2,"CSc1nc(NCc2ccccc2Cl)c2cnn(-c3ccc(F)cc3)c2n1 [화합물 20a, N-(2-클로로벤질)-1-(4-플루오로페닐)-6-(메틸티오)-1H-피라졸로[3,4-d]피리미딘-4-아민]",48 ± 17.2
3,"COc1ccccc1CNc1nc(SC)nc2c1cnn2-c1ccc(F)cc1 [화합물 20b, N-(2-메톡시벤질)-1-(4-플루오로페닐)-6-(메틸티오)-1H-피라졸로[3,4-d]피리미딘-4-아민]",48 ± 27.1
4,"CSc1nc(NCc2ccccc2C)c2cnn(-c3ccc(F)cc3)c2n1 [화합물 20c, N-(2-메틸벤질)-1-(4-프루오로페닐)-6-(메틸티오)-1H-피라졸로[3,4-d]피리미딘-4-아민]",47 ± 8
5,"COc1cccc(CNc2nc(SC)nc3c2cnn3-c2ccc(F)cc2)c1 [화합물 20d, N-(3-메톡시벤질)-1-(4-플루오로페닐)-6-(메틸티오)-1H-피라졸로[3,4-d]피리미딘-4-아민]",43 ± 5.9
6,"COc1ccc(CNc2nc(SC)nc3c2cnn3-c2ccc(F)cc2)cc1 [화합물 20e, N-(4-메톡시벤질)-1-(4-플루오로페닐)-6-(메틸티오)-1H-피라졸로[3,4-d]피리미딘-4-아민]",235
7,"CSc1nc(NCc2ccc(C)cc2)c2cnn(-c3ccc(F)cc3)c2n1 [화합물 20f, N-(4-메틸벤질)-1-(4-프루오로페닐)-6-(메틸티오)-1H-피라졸로[3,4-d]피리미딘-4-아민]",62 ± 3.8
8,"CSc1nc(NCc2ccccc2Cl)c2cnn(-c3ccc(C)cc3)c2n1 [화합물 21a, N-(2-클로로벤질)-6-(메틸티오)-1-p-톨릴-1H-피라졸로[3,4-d]피리미딘-4-아민]",37 ± 10.7
9,"COc1ccccc1CNc1nc(SC)nc2c1cnn2-c1ccc(C)cc1 [화합물 21b, N-(2-메톡시벤질)-6-(메틸티오)-1-p-톨릴-1H-피라졸로[3,4-d]피리미딘-4-아민]",44 ± 25.2
10,"CSc1nc(NCc2ccccc2C)c2cnn(-c3ccc(C)cc3)c2n1 [화합물 21c, N-(2-메틸벤질)-6-(메틸티오)-1-p-톨릴-1H-피라졸로[3,4-d]피리미딘-4-아민]",47 ± 6.8
11,"COc1cccc(CNc2nc(SC)nc3c2cnn3-c2ccc(C)cc2)c1 [화합물 21d, N-(3-메톡시벤질)-6-(메틸티오)-1-p-톨릴-1H-피라졸로[3,4-d]피리미딘-4-아민]",42 ± 5.2
12,"COc1ccc(CNc2nc(SC)nc3c2cnn3-c2ccc(C)cc2)cc1 [화합물 21e, N-(4-메톡시벤질)-6-(메틸티오)-1-p-톨릴-1H-피라졸로[3,4-d]피리미딘-4-아민]",39 ± 3
13,"CSc1nc(NCc2ccc(C)cc2)c2cnn(-c3ccc(C)cc3)c2n1 [화합물 21f, N-(4-메틸벤질)-6-(메틸티오)-1-p-톨릴-1H-피라졸로[3,4-d]피리미딘-4-아민]",49 ± 5.9
14,"CSc1nc(NC(c2ccccc2)c2ccc(Cl)cc2)c2cnn(-c3ccc(C)cc3)c2n1 (stereo not shown) [화합물 21g, N-((4-클로로페닐)(페닐)메틸)-6-(메틸티오)-1-p-톨릴-1H-피라졸로[3,4-d]피리미딘-4-아민]",79 ± 1.8
15,"CSc1nc(NC(C)C2CCCCC2)c2cnn(-c3ccc(C)cc3)c2n1 (stereo not shown) [화합물 21h, N-(1-사이클로헥실에틸)-6-(메틸티오)-1-p-톨릴-1H-피라졸로[3,4-d]피리미딘-4-아민]",73 ± 2.6
16,"CSc1nc(NC(C)c2ccc(C)cc2)c2cnn(-c3ccc(C)cc3)c2n1 (stereo not shown) [화합물 21i, 6-(메틸티오)-1-p-톨릴-N-(1-p-톨릴에틸)-1H-피라졸로[3,4-d]피리미딘-4-아민]",57 ± 1
17,"COc1ccc([C@H](C)Nc2nc(SC)nc3c2cnn3-c2ccc(C)cc2)cc1 [화합물 21j, N-((S)-1-(4-메톡시페닐)에틸)-6-(메틸티오)-1-p-톨릴-1H-피라졸로[3,4-d]피리미딘-4-아민]",52 ± 1.7
18,"C[S+]([O-])c1nc(NCc2ccccc2Cl)c2cnn(-c3ccccc3)c2n1 (stereo not shown) [화합물 22a, N-(2-클로로벤질)-6-(메틸설파이닐)-1-페닐-1H-피라졸로[3,4-d]피리미딘-4-아민]",24 ± 12.9
19,"COc1ccccc1CNc1nc([S+](C)[O-])nc2c1cnn2-c1ccccc1 (stereo not shown) [화합물 22b, N-(2-메톡시벤질)-6-(메틸설파이닐)-1-페닐-1H-피라졸로[3,4-d]피리미딘-4-아민]",28 ± 4.1
20,"CCCCNc1nc([S+](C)[O-])nc2c1cnn2-c1ccccc1 (stereo not shown) [화합물 22d, N-뷰틸-6-(메틸설파이닐)-1-페닐-1H-피라졸로[3,4-d]피리미딘-4-아민]",46 ± 8.3
21,"COc1ccccc1CNc1nc([S+](C)[O-])nc2c1cnn2-c1ccc(F)cc1 (stereo not shown) [화합물 22e, N-(2-메톡시벤질)-1-(4-플루오로페닐)-6-(메틸설파이닐)-1-페닐-1H-피라졸로[3,4-d]피리미딘-4-아민]",31 ± 6.9
22,"COc1ccccc1CNc1nc([S+](C)[O-])nc2c1cnn2-c1ccc(C)cc1 (stereo not shown) [화합물 22g, N-(2-메톡시벤질)-6-(메틸설파이닐)-1-p-톨릴-1H-피라졸로[3,4-d]피리미딘-4-아민]",42 ± 2.3
23,"COc1cccc(CCn2ncc3c(NCc4ccccc4Cl)nc([S+](C)[O-])nc32)c1 (stereo not shown) [화합물 22k, N-(2-클로로벤질)-1-(3-메톡시펜에틸)-6-(메틸설파이닐)-1H-피라졸로[3,4-d]피리미딘-4-아민]",58 ± 2

row,SMILES,activity at 20 µM [%]
1,"COc1cccc(CCn2ncc3c(NCc4ccccc4OC)nc([S+](C)[O-])nc32)c1 (stereo not shown) [화합물 22l, N-(2-메톡시벤질)-1-(3-메톡시펜에틸)-6-(메틸설파이닐)-1H-피라졸로[3,4-d]피리미딘-4-아민]",60 ± 3.3
2,"COc1cccc(CCn2ncc3c(NCc4ccccc4C)nc(S(C)(=O)=O)nc32)c1 [화합물 22m, N-(2-메틸벤질)-1-(3-메톡시펜에틸)-6-(메틸설포닐)-1H-피라졸로[3,4-d]피리미딘-4-아민]",62 ± 2.8
3,"CCCCNc1nc(S(C)(=O)=O)nc2c1cnn2-c1ccccc1 [화합물 23a, N-뷰틸-6-(메틸설포닐)-1-페닐-1H-피라졸로[3,4-d]피리미딘-4-아민]",40 ± 7.1
4,"CS(=O)(=O)c1nc(NCc2ccccc2Cl)c2cnn(-c3ccccc3)c2n1 [화합물 23b, N-(2-클로로벤질)-6-(메틸설포닐)-1-페닐-1H-피라졸로[3,4-d]피리미딘-4-아민]",93 ± 2
5,"COc1ccccc1CNc1nc(S(C)(=O)=O)nc2c1cnn2-c1ccccc1 [화합물 23c, N-(2-메톡시벤질)-6-(메틸설포닐)-1-페닐-1H-피라졸로[3,4-d]피리미딘-4-아민]",41 ± 2.3
6,"CS(=O)(=O)c1nc(NC(c2ccccc2)c2ccc(Cl)cc2)c2cnn(-c3ccccc3)c2n1 (stereo not shown) [화합물 23e, N-((4-클로로페닐)(페닐)메틸)-6-(메틸설포닐)-1-페닐-1H-피라졸로[3,4-d]피리미딘-4-아민]",36 ± 3.6
7,"CC(Nc1nc(S(C)(=O)=O)nc2c1cnn2-c1ccccc1)C1CCCCC1 (stereo not shown) [화합물 23f, N-(1-사이클로헥실에틸)-6-(메틸설포닐)-1-페닐-1H-피라졸로[3,4-d]피리미딘-4-아민]",23 ± 0.6
8,"Cc1ccc(C(C)Nc2nc(S(C)(=O)=O)nc3c2cnn3-c2ccccc2)cc1 (stereo not shown) [화합물 23g, 6-(메틸설포닐)-1-페닐-N-(1-p-톨릴에틸)-1H-피라졸로[3,4-d]피리미딘-4-아민]",46 ± 3.9
9,"COc1ccc([C@H](C)Nc2nc(S(C)(=O)=O)nc3c2cnn3-c2ccccc2)cc1 [화합물 23h, N-((S)-1-(4-메톡시페닐)에틸)-6-(메틸설포닐)-1-페닐-1H-피라졸로[3,4-d]피리미딘-4-아민]",41 ± 5.7
10,"COc1ccccc1CNc1nc(S(C)(=O)=O)nc2c1cnn2-c1ccc(F)cc1 [화합물 23i, N-(2-메톡시벤질)-1-(4-플루오로페닐)-6-(메틸설포닐)-1H-피라졸로[3,4-d]피리미딘-4-아민]",35 ± 7.3
11,"CS(=O)(=O)c1nc(NCc2ccccc2Cl)c2cnn(-c3ccc(F)cc3)c2n1 [화합물 23j, N-(2-클로로벤질)-1-(4-플루오로페닐)-6-(메틸설포닐)-1H-피라졸로[3,4-d]피리미딘-4-아민]",28 ± 19.3
12,"Cc1ccccc1CNc1nc(S(C)(=O)=O)nc2c1cnn2-c1ccc(F)cc1 [화합물 23k, N-(2-메틸벤질)-1-(4-플루오로페닐)-6-(메틸설포닐)-1H-피라졸로[3,4-d]피리미딘-4-아민]",35 ± 4.6
13,"Cc1ccc(-n2ncc3c(NCc4ccccc4Cl)nc(S(C)(=O)=O)nc32)cc1 [화합물 23l, N-(2-클로로벤질)-6-(메틸설포닐)-1-p-톨릴-1H-피라졸로[3,4-d]피리미딘-4-아민]",30 ± 37.4
14,"COc1ccccc1CNc1nc(S(C)(=O)=O)nc2c1cnn2-c1ccc(C)cc1 [화합물 23m, N-(2-메톡시벤질)-6-(메틸설포닐)-1-p-톨릴-1H-피라졸로[3,4-d]피리미딘-4-아민]",35 ± 3.3
15,"Cc1ccc(-n2ncc3c(NCc4ccccc4C)nc(S(C)(=O)=O)nc32)cc1 [화합물 23n, N-(2-메틸벤질)-1-(4-메틸페닐)-6-(메틸설포닐)-1-p-톨릴-1H-피라졸로[3,4-d]피리미딘-4-아민]",82 ± 3.1
16,"COc1ccc(CNc2nc(S(C)(=O)=O)nc3c2cnn3-c2ccc(C)cc2)cc1 [화합물 23o, N-(4-메톡시벤질)-6-(메틸설포닐)-1-p-톨릴-1H-피라졸로[3,4-d]피리미딘-4-아민]",30 ± 2.4
17,"CC(Nc1nc(S(C)(=O)=O)nc2c1cnn2Cc1ccccc1)c1ccccc1 (stereo not shown) [화합물 23p, 1-벤질-6-(메틸설포닐)-N-(1-페닐에틸)-1H-피라졸로[3,4-d]피리미딘-4-아민]",40 ± 4.9
18,"CS(=O)(=O)c1nc(NC(c2ccccc2)c2ccc(Cl)cc2)c2cnn(Cc3ccccc3)c2n1 (stereo not shown) [화합물 23s, 1-벤질-N-((4-클로로페닐)(페닐)메틸)-6-(메틸설포닐)-N-(1-페닐에틸)-1H-피라졸로[3,4-d]피리미딘-4-아민]",54 ± 2.3
19,"CC(Nc1nc(S(C)(=O)=O)nc2c1cnn2Cc1ccccc1)C1CCCCC1 (stereo not shown) [화합물 23t, 1-벤질-N-(1-사이클로헥실에틸)-6-(메틸설포닐)-1H-피라졸로[3,4-d]피리미딘-4-아민]",42 ± 2.6
20,"Cc1ccc(C(C)Nc2nc(S(C)(=O)=O)nc3c2cnn3Cc2ccccc2)cc1 (stereo not shown) [화합물 23u, 1-벤질-6-(메틸설포닐)-N-(1-p-톨릴에틸)-1H-피라졸로[3,4-d]피리미딘-4-아민]",120 ± 3.1
21,"COc1ccc([C@H](C)Nc2nc(S(C)(=O)=O)nc3c2cnn3Cc2ccccc2)cc1 [화합물 23v, 1-벤질-N-((S)-1-(4-메톡시페닐)에틸)-6-(메틸설포닐)-1H-피라졸로[3,4-d]피리미딘-4-아민]",59 ± 3
22,"COc1cccc(CCn2ncc3c(NCc4ccccc4Cl)nc(S(C)(=O)=O)nc32)c1 [화합물 23w, N-(2-클로로벤질)-1-(3-메톡시펜에틸)-6-(메틸설포닐)-1H-피라졸로[3,4-d]피리미딘-4-아민]",54 ± 2.3
23,"COc1cccc(CCn2ncc3c(NCc4ccccc4OC)nc(S(C)(=O)=O)nc32)c1 [화합물 23x, N-(2-메톡시벤질)-1-(3-메톡시펜에틸)-6-(메틸설포닐)-1H-피라졸로[3,4-d]피리미딘-4-아민]",35 ± 4.3

# — patent KR20130112248A, “피라졸로피리미딘 유도체 화합물, 이를 포함하는 산화질소 생성 억제용 조성물 및 뇌신경 질환 예방 및 치료용 약학적 조성물” (한국과학기술연구원, priority 2012, dated 2013)
